This experiment concerns IL-2 production. In words: Inhibition of IL-2 production in PHA-activated Jurkat cells. It counts as cell-based. Conditions: Homo sapiens, PHA 2.5 μg/mL, 20 hours. As for the experimental part: Jurkat cells were placed in a 96 well plate (0.5 million cells per well in 1% FBS medium) then test compounds of this invention were added at different concentrations. After 10 minutes, the cells were activated with PHA (final concentration 2.5 μg/mL) and incubated for 20 hours at 37° C. under CO2. The final volume was 200 μL. Following incubation, the cells were centrifuged and the supernatants collected and stored at −70° C. prior to assaying for IL-2 production. A commercial kit (IL-2 Eli-pair, Diaclone Research, Besancon, France) was used to detect production of IL-2, from which dose response curves were obtained. The IC50 value was calculated as the concentration at which. 50% of maximum IL-2 production after stimulation was inhibited versus a non-stimulation control.

Bounds are passed on as bounds.

Consider `O=C(Nc1ccc(-n2c(C(F)(F)F)nc3ccccc32)cc1)Nc1cc(F)ccc1F` [Compound 50, N′-[4-(2-trifluoromethy-benzoimidazol-1-yl)-phenyl]-N-(2,5-difluoropheyl)-urea], for which the IC50 (bins given with μM limit) was > 1 µM.

Consider `O=C(Nc1ccc(-n2c(C(F)(F)F)nc3ccccc32)cc1)c1cc[n+]([O-])cc1F` [Compound 51, 1-Oxo-3-fluoro-N-[4-(2-trifluoromethyl-benzoimidazol-1-yl)-phenyl]-isonicotinamide], for which the IC50 (bins given with μM limit) was > 1 µM.

On to `O=S(=O)(Nc1ccc(-n2c(C(F)(F)F)nc3ccccc32)cc1)c1cccc(F)c1F` [Compound 52, 2,3-Difluoro-N-[4-(trifluoromethyl-benzoimidazol-1-yl)-phenyl]-benzenesulfonamide], for which the IC50 (bins given with μM limit) was > 1 µM.

For the compound `CC(=O)Nc1cc(NC(=O)c2cccc(F)c2F)ccc1-n1c(C(F)(F)F)nc2ccccc21` [Compound 53, 2,3-Difluoro-N-[3-acetylamino-4-(2-trifluoromethyl-benzoimidazol-1-yl)-phenyl]-benzamide], the IC50 (bins given with μM limit) was > 1 µM.

Take `O=C(Nc1ccc(-n2cnc3ccccc32)cc1)c1cccc(F)c1F` [Compound 54, 2,3-Difluoro-N-[4-(benzoimidazol-1-yl)-phenyl]-benzamide]: the IC50 (bins given with μM limit) is > 1 µM.

As to `Cc1cc(-n2c(C(F)(F)F)nc3ccccc32)ccc1NC(=O)c1cccc(F)c1F` [Compound 55, 2,3-Difluoro-N-[2-methyl-4-(2-trifluoromethyl-benzoimidazol-1-yl)-phenyl]-benzamide], under “bins given with μM limit”, the IC50 was > 1 µM.

Regarding `O=C(Nc1ccc(-n2c(C(F)(F)F)nc3cc(N4C(=O)c5ccccc5C4=O)ccc32)cc1)c1cccc(F)c1F` [Compound 57, 2,3-Difluoro-N-{4-[2-trifluoromethyl-5-(1,3-dioxo-isoindol-2-yl)-benzoimidazol-1-yl]-phenyl}-benzamide], the IC50 (bins given with μM limit) was > 1 µM.

In the case of `Cc1nnsc1C(=O)Nc1ccc(-n2c(C(F)(F)F)nc3cccnc32)cc1` [Compound 58, 4-Methyl-[1,2,3]thiadiazole-5-carboxylic acid {N-[4-(2-trifluoromethyl-imidazo[4,5-b]pyrid-3-yl)-phenyl]} amide], the IC50 (bins given with μM limit) was > 1 µM.

`O=C(Nc1ccc(-n2c(C(F)(F)F)nc3cc(O)c(O)cc32)cc1)c1cccc(F)c1F` [Compound 60, 2,3-Difluoro-N-[4-(2-trifluoromethyl-5,6-dihydroxy-benzoimidazol-1-yl)-phenyl]-benzamide]: the concentration for half-maximal inhibition (IC50) (bins given with μM limit) was > 1 µM.

For `O=C(Nc1ccc(-n2c(C(F)(F)F)nc3cnccc32)cc1)c1cccc(F)c1F` [Compound 61, 2,3-Difluoro-N-[4-(2-trifluoromethyl-imidazo[4,5-c]pyrid-1-yl)-phenyl]-benzamide], under “bins given with μM limit”, the IC50 was > 1 µM.

Consider `Cc1nnsc1C(=O)Nc1ccc(-n2c(C(F)(F)F)nc3ccccc32)nc1` [Compound 62, 4-Methyl-[1,2,3]thiadiazole-5-carboxylic acid {N-[2-(2-trifluoromethyl-benzoimidazol-1-yl)-pyrid-5-yl]} amide], for which the 50% inhibitory concentration (IC50) (bins given with μM limit) was > 1 µM.

In turn, `COc1ccc2c(c1)nc(C(F)(F)F)n2-c1ccc(NC(=O)c2c(Cl)cc(Cl)cc2Cl)cc1` [Compound 63, 2,4,6-Trichloro-N-[4-(2-trifluoromethyl-5-methoxy-benzoimidazol-1-yl)-phenyl]-benzamide] gave a concentration for half-maximal inhibition (IC50) (bins given in nM) of 0.1 to 0.5 µM.

In the case of `O=C(Nc1ccc(-n2c(C(F)(F)F)nc3cc(C(F)(F)F)ccc32)cc1)c1cccc(F)c1F` [Compound 64, 2,3-Difluoro-N-{4-[2,5-di-(trifluoromethyl)-benzoimidazol-1-yl]-phenyl}-benzamide], the half-inhibitory concentration (IC50) (bins given in nM) is 0.1 to 0.5 µM.

In the case of `CS(=O)(=O)c1ccc2c(c1)nc(C(F)(F)F)n2-c1ccc(NC(=O)c2cccc(F)c2F)cc1` [Compound 65, 2,3-Difluoro-N-[4-(2-trifluoromethyl-5-methanesulfonyl-benzoimidazol-1-yl)-phenyl]-benzamide], the IC50 (bins given in nM) was in the range of 0.1 to 0.5 µM.

Where the note is “bins given in nM”, `CCCCc1ccc(C(=O)Nc2ccc(-n3c(C(F)(F)F)nc4cc(OC)ccc43)cc2)cc1` [Compound 66, 4-Butyl-N-[4-(2-trifluoromethyl-5-methoxy-benzoimidazol-1-yl)-phenyl]-benzamide] displayed an IC50 of 0.1 to 0.5 µM.

In the case of `CC(C)(C)c1cnc(-c2ccc3c(c2)nc(C(F)(F)F)n3-c2ccc(NC(=O)c3cc(F)ccc3F)cc2)o1` [Compound 67, 2,5-Difluoro-N-{4-[2-trifluoromethyl-5-(5-tert-butyl-oxazol-2-yl)-benzoimidazol-1-yl]-phenyl}-benzamide], where the note is “bins given with μM limit”, the half-inhibitory concentration (IC50) is > 1 µM.

`CC(C)(C)c1cnc(-c2ccc3c(c2)nc(C(F)(F)F)n3-c2ccc(NC(=O)c3cccc(F)c3F)cc2)o1` [Compound 68, 2,3-Difluoro-N-{4-[2-trifluoromethyl-5-(5-tert-butyl-oxazol-2-yl)-benzoimidazol-1-yl]-phenyl}-benzamide]: where the note is “bins given with μM limit”, the concentration for half-maximal inhibition (IC50) is > 1 µM.

For the setting “bins given in nM”, `CC(C)(C)c1cnc(-c2ccc3c(c2)nc(C(F)(F)F)n3-c2ccc(NC(=O)c3ccco3)cc2)o1` [Compound 69, Furan-2-carboxylic acid (N-{4-[2-trifluoromethyl-5-(5-tert-butyl-oxazol-2-yl)-benzoimidazol-1-yl]-phenyl}) amide] yielded an IC50 of 0.1 to 0.5 µM.

`O=C(Nc1ccc(-c2c(C(F)(F)F)nc3ccccn23)cc1)c1cccc(F)c1F` [Compound 70, 2,3-Difluoro-N-[4-(2-trifluoromethyl-imidazo[1,2-a]pyrid-3-yl)-phenyl]-benzamide]: the IC50 (bins given in nM) is 0.1 to 0.5 µM.

`COc1ccc2c(c1)nc(C(F)(F)F)n2-c1ccc(NC(=O)c2cc(F)c(F)c(F)c2F)cc1` [Compound 71, 2,3,4,5-Tetrafluoro-N-[4-(2-trifluoromethyl-5-methoxy-benzoimidazol-1-yl)-phenyl]-benzamide]: under “bins given in nM”, the half-inhibitory concentration (IC50) was < 0.1 µM.

`COc1ccc2c(c1)nc(C(F)(F)F)n2-c1ccc(NC(=O)c2ccc(-c3ccccc3)cc2)cc1` [Compound 72, 4-Phenyl-N-[4-(2-trifluoromethyl-5-methoxy-benzoimidazol-1-yl)-phenyl]-benzamide] registered an IC50 (bins given in nM) of 0.1 to 0.5 µM.

Compound `COc1ccc2c(c1)nc(C(F)(F)F)n2-c1ccc(NC(=O)c2ccc(I)cc2)cc1` [Compound 73, 4-Iodo-N-[4-(2-trifluoromethyl-5-methoxy-benzoimidazol-1-yl)-phenyl]-benzamide] returned a half-inhibitory concentration (IC50) (bins given in nM) of 0.1 to 0.5 µM.

Regarding `COc1ccc2c(c1)nc(C(F)(F)F)n2-c1ccc(NC(=O)c2ccc3ccccc3c2)cc1` [Compound 74, Naphthalene-2-carboxylic acid {N-[4-(2-trifluoromethyl-5-methoxy-benzoimidazol-1-yl)-phenyl]} amide], the IC50 (bins given in nM) lay within 0.1 to 0.5 µM.

In turn, `COc1ccc2c(c1)nc(C(F)(F)F)n2-c1ccc(NC(=O)c2ccc(C)cc2)cc1` [Compound 76, 4-Methyl-N-[4-(2-trifluoromethyl-5-methoxy-benzoimidazol-1-yl)-phenyl]-benzamide] returned an IC50 (bins given in nM) of 0.1 to 0.5 µM.

`COc1ccc2c(c1)nc(C(F)(F)F)n2-c1ccc(NC(=O)c2ccc(C#N)cc2)cc1` [Compound 77, 4-Cyano-N-[4-(2-trifluoromethyl-5-methoxy-benzoimidazol-1-yl)-phenyl]-benzamide]: the IC50 (bins given in nM) was 0.1 to 0.5 µM.

Take `COc1ccc2c(c1)nc(C(F)(F)F)n2-c1ccc(NC(=O)c2ccc([N+](=O)[O-])cc2)cc1` [Compound 78, 4-Nitro-N-[4-(2-trifluoromethyl-5-methoxy-benzoimidazol-1-yl)-phenyl]-benzamide]: where the note is “bins given in nM”, the IC50 lay in the range of 0.1 to 0.5 µM.

For `CCc1ccc(C(=O)Nc2ccc(-n3c(C(F)(F)F)nc4cc(OC)ccc43)cc2)cc1` [Compound 79, 4-Ethyl-N-[4-(2-trifluoromethyl-5-methoxy-benzoimidazol-1-yl)-phenyl]-benzamide], the IC50 (bins given in nM) was in the range of 0.1 to 0.5 µM.

Where the note is “bins given in nM”, `COc1ccc2c(c1)nc(C(F)(F)F)n2-c1ccc(NC(=O)c2ccc(C(F)(F)F)cc2)cc1` [Compound 80, 4-Trifluoromethyl-N-[4-(2-trifluoromethyl-5-methoxy-benzoimidazol-1-yl)-phenyl]-benzamide] registered an IC50 of 0.1 to 0.5 µM.

Consider `COc1ccc2c(c1)nc(C(F)(F)F)n2-c1ccc(NC(=O)c2cc([N+](=O)[O-])cc([N+](=O)[O-])c2)cc1` [Compound 81, 3,5-Dinitro-N-[4-(2-trifluoromethyl-5-methoxy-benzoimidazol-1-yl)-phenyl]-benzamide], for which the IC50 (bins given in nM) was 0.1 to 0.5 µM.

For the setting “bins given in nM”, `CCCC(=O)Nc1ccc(-n2c(C(F)(F)F)nc3cc(OC)ccc32)cc1` [Compound 82, N-[4-(2-trifluoromethyl-5-methoxy-benzoimidazol-1-yl)-phenyl]-butyramide] gave a half-maximal inhibitory concentration (IC50) of 0.1 to 0.5 µM.

On to `COc1ccc2c(c1)nc(C(F)(F)F)n2-c1ccc(NC(=O)c2cccc3ccccc23)cc1` [Compound 83, Naphthalene-1-carboxylic acid {N-[4-(2-trifluoromethyl-5-methoxy-benzoimidazol-1-yl)-phenyl]} amide], for which the IC50 (bins given in nM) is 0.1 to 0.5 µM.

`COc1ccc2c(c1)nc(C(F)(F)F)n2-c1ccc(NC(=O)C=C(C)C)cc1` [Compound 84, 3-Methyl-N-[4-(2-trifluoromethyl-5-methoxy-benzoimidazol-1-yl)-phenyl]-but-2-enoic acid amide] showed an IC50 (bins given in nM) of 0.1 to 0.5 µM.

Under “bins given in nM”, `CCCc1ccc(C(=O)Nc2ccc(-n3c(C(F)(F)F)nc4cc(OC)ccc43)cc2)cc1` [Compound 85, 4-Propyl-N-[4-(2-trifluoromethyl-5-methoxy-benzoimidazol-1-yl)-phenyl]-benzamide] had a half-maximal inhibitory concentration (IC50) of 0.1 to 0.5 µM.

In turn, `COc1ccc2c(c1)nc(C(F)(F)F)n2-c1ccc(NC(=O)c2cccs2)cc1` [Compound 86, Thiophene-2-carboxylic acid {N-[4-(2-trifluoromethyl-5-methoxy-benzoimidazol-1-yl)-phenyl]} amide] showed an IC50 (bins given in nM) of 0.1 to 0.5 µM.

One may read the IC50 as the concentration that gives 50% inhibition. High values mean a need for much substance, low ones inhibition by little substance.
